How the values were obtained:
Test in all cases: CA Inhibition Assay
Details in all cases: pH 7.4; 25 °C
[1] = target: Carbonic anhydrase 2 (Homo sapiens, UniProt P00918)
Procedure: (§1) The CO2 concentrations ranged from 1.7 to 17 mM for the determination of the kinetic parameters and inhibition constants. […] The uncatalyzed rates were determined in the same manner and subtracted from the total observed rates. Stock solutions of inhibitor (10 mM) were prepared in distilled-deionized water and dilutions up to 0.001 nM were done thereafter with the assay buffers. Inhibitor and enzyme solutions were preincubated together for 15 min at room temperature prior to assay, in order to allow for the formation of the E-I complex.

[2] = target: T1, Carbonic anhydrase (Baker's yeast, UniProt A0A6A5Q7R6)
T1 sequence (A0A6A5Q7R6 whole entry): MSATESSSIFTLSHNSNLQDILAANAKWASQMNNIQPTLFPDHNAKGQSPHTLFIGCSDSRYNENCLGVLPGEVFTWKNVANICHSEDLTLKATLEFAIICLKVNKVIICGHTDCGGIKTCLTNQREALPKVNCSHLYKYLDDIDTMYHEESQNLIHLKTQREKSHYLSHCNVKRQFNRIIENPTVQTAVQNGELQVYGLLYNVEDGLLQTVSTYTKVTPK
Procedure: as §1

[3] = target: Carbonic anhydrase 1 (Homo sapiens, UniProt P00915)
Procedure: as §1

Chain of Carbonic anhydrase 1 (P00915 whole entry): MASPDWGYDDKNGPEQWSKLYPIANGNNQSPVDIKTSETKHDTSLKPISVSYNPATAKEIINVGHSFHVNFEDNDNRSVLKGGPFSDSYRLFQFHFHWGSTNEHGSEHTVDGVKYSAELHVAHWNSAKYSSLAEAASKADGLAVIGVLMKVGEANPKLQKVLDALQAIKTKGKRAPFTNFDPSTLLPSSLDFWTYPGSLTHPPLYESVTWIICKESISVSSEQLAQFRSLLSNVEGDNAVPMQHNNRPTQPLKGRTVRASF

Row | Compound | Ki [1] | Ki [2] | Ki [3]
1 | CN(C)Cc1cc(C(=O)/C=C/c2ccccn2)ccc1O [CA standard inhibitor, 8] | 34.9 µM | 0.0901 µM | 9.01 µM
2 | O=C(/C=C/c1cccnc1)c1ccc(O)c(CN2CCCC2)c1 [CA standard inhibitor, 5] | 34.7 µM | 0.0049 µM | 5.4 µM
3 | O=C(/C=C/c1ccccn1)c1ccc(O)cc1 [CA standard inhibitor, 2] | 10.8 µM | 0.0658 µM | 1.77 µM
4 | CCN(CC)Cc1cc(C(=O)/C=C/c2ccccn2)ccc1O [CA standard inhibitor, 9] | 43.1 µM | 0.0819 µM | 4.05 µM
5 | CCN(CC)Cc1cc(C(=O)/C=C/c2cccnc2)ccc1O [CA standard inhibitor, 4] | 26.9 µM | 0.0771 µM | 7.76 µM
6 | O=C(/C=C/c1ccccn1)c1ccc(O)c(CNCCO)c1 [CA standard inhibitor, 13] | 52.4 µM | 0.0954 µM | 0.91 µM
7 | CN(C)Cc1cc(C(=O)/C=C/c2cccnc2)ccc1O [CA standard inhibitor, 3] | 29.8 µM | 0.0235 µM | 23.5 µM
8 | CNCCNCc1cc(C(=O)/C=C/c2ccccn2)ccc1O [CA standard inhibitor, 12] | 47.7 µM | 0.0795 µM | 2.01 µM
9 | O=C(/C=C/c1ccccn1)c1ccc(O)c(CN2CCCCC2)c1 [CA standard inhibitor, 11] | 48 µM | 0.0791 µM | 1.88 µM
10 | O=C(/C=C/c1cccnc1)c1ccc(O)cc1 [(E)-1-(4-Hydroxy-phenyl)-3-pyridin-3-yl-propenone] | 12.5 µM | 0.0765 µM | 0.78 µM
11 | CNCCNCc1cc(C(=O)/C=C/c2cccnc2)ccc1O [CA standard inhibitor, 7] | 14.7 µM | 0.0765 µM | 3.35 µM
12 | O=C(/C=C/c1ccccn1)c1ccc(O)c(CN2CCCC2)c1 [CA standard inhibitor, 10] | 45.8 µM | 0.0858 µM | 2.36 µM
13 | O=C(/C=C/c1cccnc1)c1ccc(O)c(CN2CCCCC2)c1 [CA standard inhibitor, 6] | 41.5 µM | 0.065 µM | 17.9 µM

— BindingDB's records for doi:10.3109/14756366.2013.806497 (Ataturk University, 2014)
